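Grown in 96-well plates, cells were treated for 48 hours with each compound at five concentrations. Insufficient inhibition: endpoint recorded as highest concentration tested. TGI marks complete inhibition of growth.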
Experiments:
Assay in all cases: growth of human tumour cells (NCI), 48 h
[1] = system: HCC-2998 colon
[2] = system: HS 578T breast
[3] = system: K-562 leukemia
[4] = system: KM12 colon
[5] = system: M14 melanoma
[6] = system: PC-3 prostate
[7] = system: SF-268 CNS
[8] = system: SF-295 CNS
[9] = system: SF-539 CNS
[10] = system: T-47D breast
[11] = system: UACC-62 melanoma

Structure (SMILES): Nc1ncnc2c1ncn2[C@@H]1O[C@H](COC(c2ccccc2)(c2ccccc2)c2ccccc2)[C@@H](OC(=S)Oc2ccccc2)[C@@H]1F
- TGI [1]: 28.5 µM
- TGI [2]: 25.1 µM
- TGI [3]: > 100 µM
- TGI [4]: 29.1 µM
- TGI [5]: 21 µM
- TGI [6]: 15.2 µM
- TGI [7]: 12.4 µM
- TGI [8]: 31.1 µM
- TGI [9]: 20.9 µM
- TGI [10]: 52.3 µM
- TGI [11]: 29.7 µM

Structure (SMILES): O=C(O)c1ccccc1N=Nc1c(O)c(S(=O)(=O)O)cc2cc(S(=O)(=O)O)ccc12
- TGI [1]: > 100 µM
- TGI [2]: > 100 µM
- TGI [3]: > 100 µM
- TGI [4]: > 100 µM
- TGI [5]: > 100 µM
- TGI [6]: > 100 µM
- TGI [7]: > 100 µM
- TGI [8]: > 100 µM
- TGI [9]: > 100 µM
- TGI [10]: > 100 µM
- TGI [11]: > 100 µM

Structure (SMILES): O=c1[nH]c2nc3ccccc3c(=O)n2/c1=C/c1ccco1
- TGI [1]: > 100 µM
- TGI [2]: > 100 µM
- TGI [3]: > 100 µM
- TGI [4]: > 100 µM
- TGI [5]: > 100 µM
- TGI [6]: > 100 µM
- TGI [7]: > 100 µM
- TGI [8]: > 100 µM
- TGI [9]: > 100 µM
- TGI [10]: > 100 µM
- TGI [11]: > 100 µM

Structure (SMILES): O=C1Cc2c([nH]c3ccc(C(=O)O)cc23)-c2ccccc2N1
- TGI [1]: > 100 µM
- TGI [2]: > 100 µM
- TGI [3]: > 100 µM
- TGI [4]: > 100 µM
- TGI [5]: > 100 µM
- TGI [6]: > 100 µM
- TGI [7]: > 100 µM
- TGI [8]: > 100 µM
- TGI [9]: > 100 µM
- TGI [10]: > 100 µM
- TGI [11]: > 100 µM

Structure (SMILES): O=C(c1ccco1)N(C(=O)N1CCN(c2ccccc2)CC1)S(=O)(=O)c1ccccc1
- TGI [1]: > 100 µM
- TGI [2]: > 100 µM
- TGI [3]: > 100 µM
- TGI [4]: > 100 µM
- TGI [5]: 60.4 µM
- TGI [6]: > 100 µM
- TGI [7]: > 100 µM
- TGI [8]: > 100 µM
- TGI [9]: 41.1 µM
- TGI [10]: 61 µM
- TGI [11]: 82 µM

Structure (SMILES): CC(=O)OCC1OC(OCCCOP(=S)(OCCC#N)OCC2OC(n3ccc(N)nc3=O)C(OC(=O)c3ccccc3)C2OC(=O)c2ccccc2)C(OC(C)=O)C(OC(C)=O)C1OC(C)=O (centres undefined)
- TGI [1]: > 100 µM
- TGI [2]: > 100 µM
- TGI [3]: > 100 µM
- TGI [4]: > 100 µM
- TGI [5]: > 100 µM
- TGI [6]: > 100 µM
- TGI [7]: > 100 µM
- TGI [8]: > 100 µM
- TGI [9]: > 100 µM
- TGI [10]: > 100 µM
- TGI [11]: > 100 µM

Structure (SMILES): CN(CCCNC(=O)c1cc(-c2ccccc2)nc2ccccc12)CCCNC(=O)c1cc(-c2ccccc2)nc2ccccc12
- TGI [1]: 3.36 µM
- TGI [2]: 16 µM
- TGI [3]: 4.69 µM
- TGI [4]: 4.75 µM
- TGI [5]: 3.17 µM
- TGI [6]: 13 µM
- TGI [7]: 14 µM
- TGI [8]: 3.31 µM
- TGI [9]: 4.67 µM
- TGI [10]: 9.92 µM
- TGI [11]: 4.31 µM

Structure (SMILES): COc1ccc(CNc2cc(=O)n(C)c(=O)[nH]2)cc1
- TGI [1]: > 100 µM
- TGI [2]: > 100 µM
- TGI [3]: > 100 µM
- TGI [4]: > 100 µM
- TGI [5]: > 100 µM
- TGI [6]: > 100 µM
- TGI [7]: > 100 µM
- TGI [8]: > 100 µM
- TGI [9]: > 100 µM
- TGI [10]: > 100 µM
- TGI [11]: > 100 µM

Structure (SMILES): c1ccc(CC2COC(c3cccs3)=N2)cc1 (centres undefined)
- TGI [1]: > 100 µM
- TGI [2]: > 100 µM
- TGI [3]: > 100 µM
- TGI [4]: > 100 µM
- TGI [5]: > 100 µM
- TGI [6]: > 100 µM
- TGI [7]: > 100 µM
- TGI [8]: > 100 µM
- TGI [9]: > 100 µM
- TGI [10]: > 100 µM
- TGI [11]: > 100 µM

Structure (SMILES): CCOC(=O)C1CCCCN1C(=O)Cc1c[nH]c2ccccc12 (centres undefined)
- TGI [1]: > 100 µM
- TGI [2]: > 100 µM
- TGI [3]: > 100 µM
- TGI [4]: > 100 µM
- TGI [5]: > 100 µM
- TGI [6]: > 100 µM
- TGI [7]: > 100 µM
- TGI [8]: > 100 µM
- TGI [9]: > 100 µM
- TGI [10]: > 100 µM
- TGI [11]: > 100 µM

Structure (SMILES): CC(C)(C)NC(=O)CCC1C(C(=O)NC(C)(C)C)C2(Cl)C(Cl)=C(Cl)C1(Cl)C2(Cl)Cl (centres undefined)
- TGI [1]: > 100 µM
- TGI [2]: > 100 µM
- TGI [3]: > 100 µM
- TGI [4]: > 100 µM
- TGI [5]: > 100 µM
- TGI [6]: > 100 µM
- TGI [7]: > 100 µM
- TGI [8]: > 100 µM
- TGI [9]: > 100 µM
- TGI [10]: > 100 µM
- TGI [11]: > 100 µM

Structure (SMILES): CCN(CC)C1Oc2cc3c(cc2C(c2cccc(OC)c2OC)C1C)OCO3 (centres undefined)
- TGI [1]: 25.8 µM
- TGI [2]: 28.8 µM
- TGI [3]: 14.4 µM
- TGI [4]: 29.5 µM
- TGI [5]: 46.7 µM
- TGI [6]: 24.4 µM
- TGI [7]: > 100 µM
- TGI [8]: 16.3 µM
- TGI [9]: 28.2 µM
- TGI [10]: 28.5 µM
- TGI [11]: 30.1 µM

Structure (SMILES): c1ccc(N=C2c3ccsc3C(=Nc3ccccc3)c3ccsc32)cc1
- TGI [1]: 7.25 µM
- TGI [2]: 6.04 µM
- TGI [3]: 10.4 µM
- TGI [4]: 6.35 µM
- TGI [5]: 2.32 µM
- TGI [6]: 9.44 µM
- TGI [7]: 6.82 µM
- TGI [8]: 3.11 µM
- TGI [9]: 3.83 µM
- TGI [10]: 4.06 µM
- TGI [11]: 3.9 µM

Structure (SMILES): CCOC(=O)Cn1nnc2ccc(Nc3nc4ccccc4nc3-c3ccccc3)cc21
- TGI [1]: 66.4 µM
- TGI [2]: > 100 µM
- TGI [3]: > 100 µM
- TGI [4]: > 100 µM
- TGI [5]: > 100 µM
- TGI [6]: > 100 µM
- TGI [7]: > 100 µM
- TGI [8]: > 100 µM
- TGI [9]: > 100 µM
- TGI [10]: > 100 µM
- TGI [11]: > 100 µM

Structure (SMILES): CC(C)(C)OC(=O)NCCCCC(N)NC(=O)c1ccccc1 (centres undefined)
- TGI [1]: > 100 µM
- TGI [2]: > 100 µM
- TGI [3]: > 100 µM
- TGI [4]: > 100 µM
- TGI [5]: > 100 µM
- TGI [6]: > 100 µM
- TGI [7]: > 100 µM
- TGI [8]: > 100 µM
- TGI [9]: > 100 µM
- TGI [10]: > 100 µM
- TGI [11]: > 100 µM

Structure (SMILES): O=c1[nH]nc(-c2ccccc2)n1O
- TGI [1]: > 100 µM
- TGI [2]: > 100 µM
- TGI [3]: > 100 µM
- TGI [4]: > 100 µM
- TGI [5]: > 100 µM
- TGI [6]: > 100 µM
- TGI [7]: > 100 µM
- TGI [8]: > 100 µM
- TGI [9]: > 100 µM
- TGI [10]: > 100 µM
- TGI [11]: > 100 µM

Structure (SMILES): C=CCC1(C)CCCN(Cc2ccccc2)C1=O (centres undefined)
- TGI [1]: > 10 µM
- TGI [2]: > 10 µM
- TGI [3]: > 10 µM
- TGI [4]: > 10 µM
- TGI [5]: > 10 µM
- TGI [6]: > 10 µM
- TGI [7]: > 10 µM
- TGI [8]: > 10 µM
- TGI [9]: > 10 µM
- TGI [10]: > 10 µM
- TGI [11]: > 10 µM

Structure (SMILES): N#Cc1nc(C#N)n(S(=O)(=O)c2ccccc2)c1NS(=O)(=O)c1ccccc1
- TGI [1]: > 100 µM
- TGI [2]: > 100 µM
- TGI [3]: > 100 µM
- TGI [4]: > 100 µM
- TGI [5]: > 100 µM
- TGI [6]: > 100 µM
- TGI [7]: > 100 µM
- TGI [8]: > 100 µM
- TGI [9]: > 100 µM
- TGI [10]: > 100 µM
- TGI [11]: > 100 µM

Structure (SMILES): NNc1nnc(-c2nnc(NN)o2)o1
- TGI [1]: > 10 µM
- TGI [2]: > 10 µM
- TGI [3]: > 10 µM
- TGI [4]: > 10 µM
- TGI [5]: > 10 µM
- TGI [6]: > 10 µM
- TGI [7]: > 10 µM
- TGI [8]: > 10 µM
- TGI [9]: > 10 µM
- TGI [10]: > 10 µM
- TGI [11]: > 10 µM

Structure (SMILES): N#C/C(C(=S)NCc1ccccc1)=C(/N)N1CCCC1
- TGI [1]: > 100 µM
- TGI [2]: > 100 µM
- TGI [3]: > 100 µM
- TGI [4]: > 100 µM
- TGI [5]: > 100 µM
- TGI [6]: > 100 µM
- TGI [7]: > 100 µM
- TGI [8]: > 100 µM
- TGI [9]: > 100 µM
- TGI [10]: > 100 µM
- TGI [11]: > 100 µM

Structure (SMILES): N#CCCC1(CCC#N)CCCCCCCCC(CCC#N)(CCC#N)C(O)C1O (centres undefined)
- TGI [1]: > 100 µM
- TGI [2]: 91.3 µM
- TGI [3]: > 100 µM
- TGI [4]: > 100 µM
- TGI [5]: > 100 µM
- TGI [6]: > 100 µM
- TGI [7]: > 100 µM
- TGI [8]: > 100 µM
- TGI [9]: 85.8 µM
- TGI [10]: > 100 µM
- TGI [11]: > 100 µM

Structure (SMILES): Clc1ccc2oc(CCc3ccccc3)nc2c1
- TGI [1]: 77.1 µM
- TGI [2]: > 100 µM
- TGI [3]: > 100 µM
- TGI [4]: > 100 µM
- TGI [5]: > 100 µM
- TGI [6]: > 100 µM
- TGI [7]: > 100 µM
- TGI [8]: > 100 µM
- TGI [9]: > 100 µM
- TGI [10]: > 100 µM
- TGI [11]: > 100 µM

Structure (SMILES): COC(=O)C(Cc1c[nH]c2ccccc12)N=C1Nc2ccncc2S(=O)(=O)N1c1cccc(OC(C)C)c1 (centres undefined)
- TGI [1]: > 100 µM
- TGI [2]: > 100 µM
- TGI [3]: > 100 µM
- TGI [4]: > 100 µM
- TGI [5]: > 100 µM
- TGI [6]: > 100 µM
- TGI [7]: > 100 µM
- TGI [8]: > 100 µM
- TGI [9]: > 100 µM
- TGI [10]: > 100 µM
- TGI [11]: > 100 µM

Structure (SMILES): COc1ccc(C(=O)/C=C/c2ccc(OCC#N)cc2)cc1
- TGI [1]: 31.8 µM
- TGI [2]: > 100 µM
- TGI [3]: 96.6 µM
- TGI [4]: 32.6 µM
- TGI [5]: 42 µM
- TGI [6]: > 100 µM
- TGI [7]: > 100 µM
- TGI [8]: > 100 µM
- TGI [9]: 45.4 µM
- TGI [10]: 46 µM
- TGI [11]: > 10 µM
